Data: US12350270B2, “Antimalarial agents” (Merck Sharp & Dohme LLC, priority 2019, dated 2025)

The molecules below were run on parasites (ring stage, in human red blood cell culture) (assay: Parasite LDH growth assay (antiparasite potency, Parasite Assay)). Details: 0.7% rings, 2% haematocrit, 72 hours at 37° C., LDH readout of parasite growth.
Type: cell-based, Plasmodium falciparum
How it was run: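 Ring-stage parasites at 0.7% parasitemia and 2% haematocrit, in RPMI-Hepes/bicarbonate with 5% heat-inactivated human serum and 0.5% albumax, were added to compound-containing medium. Cultures grew 72 h at 37 °C in gassed humidified boxes. Plates were then frozen overnight at −80 °C, thawed 4 h, and growth was measured by LDH assay.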

Compared with `CC(C)[C@]1(C)CC(=O)N([C@@H]2CC(C)(C)Oc3ccc(C(=O)N[C@@H]4c5ccccc5OC[C@H]4O)cc32)C(=N)N1` [Example 45A, (R)-N-((3S,4R)-3-hydroxychroman-4-yl)-4-((S)-2-imino-4-isopropyl-4-methyl-6-oxotetrahydropyrimidin-1(2H)-yl)-2,2-dimethylchromane-6-carboxamide], `CC1(C)CC(=O)N([C@@H]2CC(C)(C)Oc3ccc(C(=O)N[C@@H]4c5ccccc5OC[C@H]4O)cc32)C(=N)N1` [Example 56A, (R)-N-((3S,4R)-3-hydroxychroman-4-yl)-4-(2-imino-4,4-dimethyl-6-oxotetrahydropyrimidin-1(2H)-yl)-2,2-dimethylchromane-6-carboxamide] is 10-fold higher in EC50: 2.6 nM for the first, 26.9 nM for the second.

`CCC1(CC)CC(=O)N([C@@H]2CC(C)(C)Oc3ccc(C(=O)N[C@@H]4c5cc(F)ccc5OC(C)(C)[C@H]4O)cc32)C(=N)N1` [Example 46A, (R)-4-(4,4-diethyl-2-imino-6-oxotetrahydropyrimidin-1(2H)-yl)-N-((3S,4R)-6-fluoro-3-hydroxy-2,2-dimethylchroman-4-yl)-2,2-dimethylchromane-6-carboxamide] and `CCC1(CC)CC(=O)N([C@H]2c3cc(C(=O)N[C@@H]4c5ccccc5OC(C)(C)[C@H]4O)ccc3OCC2OC)C(=N)N1` (stereo partly drawn) [Example 67A, (3R,4S)-4-(4,4-diethyl-2-imino-6-oxotetrahydropyrimidin-1(2H)-yl)-N-((3S,4R)-3-hydroxy-2,2-dimethylchroman-4-yl)-3-methoxychromane-6-carboxamide] are within 1.5-fold of each other in EC50: 130 nM for the first, 170 nM for the second.

Compared with `CCC1(CC)CC(=O)N([C@@H]2CC(C)(C)Oc3ccc(C(=O)N[C@@H]4c5cc(F)ccc5OC(C)(C)[C@H]4O)cc32)C(=N)N1` [Example 53A, (R)-4-(4,4-diethyl-2-imino-6-oxotetrahydropyrimidin-1(2H)-yl)-N-((3S,4R)-6-fluoro-3-hydroxy-2,2-dimethylchroman-4-yl)-2,2-dimethylchromane-6-carboxamide], `CCC1(CC)CC(=O)N([C@H]2c3cc(C(=O)N[C@@H]4c5ccccc5OC(C)(C)[C@H]4O)ccc3OCC2OC)C(=N)N1` (stereo partly drawn) [Example 67B, (3R,4S)-4-(4,4-diethyl-2-imino-6-oxotetrahydropyrimidin-1(2H)-yl)-N-((3S,4R)-3-hydroxy-2,2-dimethylchroman-4-yl)-3-methoxychromane-6-carboxamide] is 2.7-fold higher in EC50: 0.3 nM for the first, 0.8 nM for the second. The first is the more potent here.

Going from `CCC1(CC)C[C@@H](N2C(=N)NC(C)(C)CC2=O)c2cc(C(=O)N[C@@H]3c4ccccc4OC[C@H]3O)ccc2O1` [Example 57A, (R)-2,2-diethyl-N-((3S,4R)-3-hydroxychroman-4-yl)-4-(2-imino-4,4-dimethyl-6-oxotetrahydropyrimidin-1(2H)-yl)chromane-6-carboxamide] to `CCC1(CC)CC(=O)N([C@H]2c3cc(C(=O)N[C@@H]4c5ccccc5C[C@H]4O)ccc3OC[C@@H]2OC)C(=N)N1` [Example 69A, (3R,4S)-4-(4,4-diethyl-2-imino-6-oxotetrahydropyrimidin-1(2H)-yl)-N-((1R,2R)-2-hydroxy-2,3-dihydro-1H-inden-1-yl)-3-methoxychromane-6-carboxamide], the EC50 falls from 18.3 nM to 2.6 nM (7-fold).

With `CCC1(CC)CC(=O)N([C@@H]2CCS(=O)(=O)c3ccc(C(=O)N[C@H]4CC(C)(C)Oc5ccccc54)cc32)C(=N)N1` [Example 70A, (R)-4-(4,4-diethyl-2-imino-6-oxotetrahydropyrimidin-1(2H)-yl)-N-((S)-2,2-dimethylchroman-4-yl)thiochromane-6-carboxamide 1,1-dioxide] the EC50 was 9.3 nM.

Same assay, conditions: Plasmodium falciparum, Erythrocyte, 72 h, 0.7% rings, 2% haematocrit, 72 hours at 37° C., LDH readout of parasite growth

Compared with `CC(C)[C@]1(C)CC(=O)N([C@@H]2CC(C)(C)Oc3ccc(C(=O)N[C@@H]4c5cc(F)ccc5OC(C)(C)[C@H]4O)cc32)C(=N)N1` [Example 41A, (R)-N-((3 S,4R)-6-fluoro-3-hydroxy-2,2-dimethylchroman-4-yl)-4-((S)-2-imino-4-isopropyl-4-methyl-6-oxotetrahydropyrimidin-1(2H)-yl)-2,2-dimethylchromane-6-carboxamide], `CC1(C)CC(=O)N([C@@H]2CC(C)(C)Oc3ccc(C(=O)N[C@H]4c5cc(F)ccc5OC(C)(C)[C@@H]4O)cc32)C(=N)N1` [Example 58A, (R)-N-((3R,4S)-6-fluoro-3-hydroxy-2,2-dimethylchroman-4-yl)-4-(2-imino-4,4-dimethyl-6-oxotetrahydropyrimidin-1(2H)-yl)-2,2-dimethylchromane-6-carboxamide] is 89-fold higher in EC50: 2.8 nM for the first, 250 nM for the second.

`CC1(C)CC(=O)N([C@@H]2CC(C)(C)Oc3ccc(C(=O)N[C@@H]4c5ccccc5OC(C)(C)[C@H]4O)cc32)C(=N)N1` [Example 47A, (R)-N-((3S,4R)-3-hydroxy-2,2-dimethylchroman-4-yl)-4-(2-imino-4,4-dimethyl-6-oxotetrahydropyrimidin-1(2H)-yl)-2,2-dimethylchromane-6-carboxamide] and `CCC1(CC)C[C@@H](N2C(=N)NC(C)(C)CC2=O)c2cc(C(=O)N[C@@H]3c4ccccc4OC(C)(C)[C@H]3O)ccc2O1` [Example 50A, (R)-2,2-diethyl-N-((3S,4R)-3-hydroxy-2,2-dimethylchroman-4-yl)-4-(2-imino-4,4-dimethyl-6-oxotetrahydropyrimidin-1(2H)-yl)chromane-6-carboxamide] are within 1.5-fold of each other in EC50: 4.7 nM for the first, 3.7 nM for the second.

`CC1(C)CC(=O)N([C@@H]2CC(C)(C)Oc3ccc(C(=O)N[C@@H]4c5ccccc5C[C@H]4O)cc32)C(=N)N1` [Example 48A, (R)-N-((lR,2R)-2-hydroxy-2,3-dihydro-1H-inden-l-yl)-4-(2-imino-4,4-dimethyl-6-oxotetrahydropyrimidin-1(2H)-yl)-2,2-dimethylchromane-6-carboxamide] and `CC1(C)CC(=O)N([C@@H]2CC(C)(C)Oc3ccc(C(=O)N[C@@H]4c5ccccc5OC[C@H]4O)cc32)C(=N)N1` [Example 49A, (R)-N-((3S,4R)-3-hydroxychroman-4-yl)-4-(2-imino-4,4-dimethyl-6-oxotetrahydropyrimidin-1(2H)-yl)-2,2-dimethylchromane-6-carboxamide] are within 1.5-fold of each other in EC50: 37.5 nM for the first, 49 nM for the second.

Compared with `CCC1(CC)C[C@@H](N2C(=N)NC(C)(C)CC2=O)c2cc(C(=O)N[C@@H]3c4ccccc4C[C@H]3O)ccc2O1` [Example 51A, (R)-2,2-diethyl-N-((1R,2R)-2-hydroxy-2,3-dihydro-1H-inden-l-yl)-4-(2-imino-4,4-dimethyl-6-oxotetrahydropyrimidin-1(2H)-yl)chromane-6-carboxamide], `CCC1(CC)C[C@@H](N2C(=N)NC(C)(C)CC2=O)c2cc(C(=O)N[C@@H]3c4ccccc4OC[C@H]3O)ccc2O1` [Example 52A, (R)-2,2-diethyl-N-((3S,4R)-3-hydroxychroman-4-yl)-4-(2-imino-4,4-dimethyl-6-oxotetrahydropyrimidin-1(2H)-yl)chromane-6-carboxamide] is 1.6-fold lower in EC50: 22.5 nM for the first, 14.4 nM for the second.

Compared with `CC1(C)CC(=O)N([C@@H]2CC(C)(C)Oc3ccc(C(=O)N[C@@H]4c5cc(F)ccc5OC(C)(C)[C@H]4O)cc32)C(=N)N1` [Example 58B, (R)-N-((3S,4R)-6-fluoro-3-hydroxy-2,2-dimethylchroman-4-yl)-4-(2-imino-4,4-dimethyl-6-oxotetrahydropyrimidin-1(2H)-yl)-2,2-dimethylchromane-6-carboxamide], `CCC1(CC)C[C@@H](N2C(=N)NC(C)(C)CC2=O)c2cc(C(=O)N[C@H]3c4cc(F)ccc4OC(C)(C)[C@@H]3O)ccc2O1` [Example 59A, (R)-2,2-diethyl-N-((3R,4S)-6-fluoro-3-hydroxy-2,2-dimethylchroman-4-yl)-4-(2-imino-4,4-dimethyl-6-oxotetrahydropyrimidin-yl)chromane-6-carboxamide] is 55-fold higher in EC50: 3.8 nM for the first, 210 nM for the second. The first is the more potent here.

`CCC1(CC)C[C@@H](N2C(=N)NC(C)(C)CC2=O)c2cc(C(=O)N[C@@H]3c4cc(F)ccc4OC(C)(C)[C@H]3O)ccc2O1` [Example 59B, (R)-2,2-diethyl-N-((3S,4R)-6-fluoro-3-hydroxy-2,2-dimethylchroman-4-yl)-4-(2-imino-4,4-dimethyl-6-oxotetrahydropyrimidin-1(2H)-yl)chromane-6-carboxamide] and `CC1(C)CC(=O)N([C@@H]2CCOc3ccc(C(=O)N[C@@H]4c5ccccc5OC(C)(C)[C@H]4O)cc32)C(=N)N1` [Example 62A, (R)-N-((3S,4R)-3-hydroxy-2,2-dimethylchroman-4-yl)-4-(2-imino-4,4-dimethyl-6-oxotetrahydropyrimidin-1(2H)-yl)chromane-6-carboxamide] are within 1.5-fold of each other in EC50: 1.6 nM for the first, 1.2 nM for the second.

First: CC1(C)CC(=O)N([C@@H]2CCOc3ccc(C(=O)N[C@@H]4c5ccccc5C[C@H]4O)cc32)C(=N)N1 [Example 61A, (R)-N-((1R,2R)-2-hydroxy-2,3-dihydro-1H-inden-l-yl)-4-(2-imino-4,4-dimethyl-6-oxotetrahydropyrimidin-1(2H)-yl)chromane-6-carboxamide]
Second: CCC1(CC)CC(=O)N([C@@H]2CCOc3ccc(C(=O)NC4CC(=O)Oc5ccccc54)cc32)C(=N)N1 (stereo partly drawn) [Example 63A, (4R)-4-(4,4-diethyl-2-imino-6-oxotetrahydropyrimidin-1(2H)-yl)-N-(2-oxochroman-4-yl)chromane-6-carboxamide]
The EC50 of the first is 26-fold lower: 8.4 nM for the first, 220 nM for the second. The first is the more potent here.

Compared with `CCC1(CC)CC(=O)N([C@@H]2CCOc3ccc(C(=O)N4Cc5ccccc5C4)cc32)C(=N)N1` [Example 66A, (R)-6,6-diethyl-2-imino-3-(6-(isoindoline-2-carbonyl)chroman-4-yl)tetrahydropyrimidin-4(1H)-one], `CCC1(CC)CC(=O)N([C@@H]2CCS(=O)(=O)c3ccc(C(=O)N[C@@H]4c5ccccc5OC(C)(C)[C@H]4O)cc32)C(=N)N1` [Example 71A, (R)-4-(4,4-diethyl-2-imino-6-oxotetrahydropyrimidin-1(2H)-yl)-N-((3S,4R)-3-hydroxy-2,2-dimethylchroman-4-yl)thiochromane-6-carboxamide 1,1-dioxide] is 22-fold lower in EC50: 76 nM for the first, 3.5 nM for the second.

`CCC1(CC)CC(=O)N([C@H]2c3cc(C(=O)N[C@H]4CC(C)(C)Oc5ccccc54)ccc3OCC2OC)C(=N)N1` (stereo partly drawn) [Example 68A, (3R,4S)-4-(4,4-diethyl-2-imino-6-oxotetrahydropyrimidin-1(2H)-dimethylchroman-4-yl)-3-methoxychromane-6-carboxamide] showed an EC50 of 1 nM.
